The subject of the experiment is MOLM-13 cells. The experiment is described as follows: Viability assay in MOLM-13 cells (CellTiter-Glo 2.0). The experiment is classed as cell-based, human. The following applies: read-out: MOLM-13 IC50 (cell viability).
Setting [1] is: MOLM-13 human AML cells, 72 hours, CellTiter-Glo 2.0.

Our source for the IC50 values is patent publication US20250059207A1, “6,6-FUSED HETEROCYCLIC COMPOUNDS AS METTL3 INHIBITORS” (858 Therapeutics, Inc., priority 2021, published 2025).

The structures appear in SMILES notation. pIC50: −log10 of the molar value. Where two headings read alike, the source gives them in different places. Bounds are passed on as bounds.

Description: Effects of test compounds on the proliferation and viability of human AML cells was evaluated using the MOLM-13 cell line (AddexBio Technologies cat. no. C0003003). […] Test compounds or controls (Bortezomib or DMSO) diluted in 2% DMSO/media were added to each well for final concentrations of 0.2% DMSO and 0.1-1 μM Bortezomib. The cells were incubated for 72 hours at 37° C. and 5% CO2. At the end of the 72 hour incubation, plates were removed from the incubator, cooled to room temperature and equal volume of CellTiter-Glo 2.0 (Promega) added to each well. After mixing and incubating the plate at room temperature for 10 minutes the luminescence was read using a plate reader. […] Concentration-response-curves and IC50 values were generated using Collaborative Drug Discovery software.

For orientation: pIC50 means −log10 of the IC50, conventionally taken in molar units. As for `CNc1ccc2ccc(-c3ccc(Cn4ccc5c(-c6ccccc6)cncc5c4=O)cc3)cc2n1` [Compound 94, 2-(4-(2-(methylamino)quinolin-7-yl)benzyl)-5-phenyl-2,7-naphthyridin-1(2H)-one], the pIC50 under setting [1] was 5.00 to 6.00.

Turning to `O=c1c2cncc(-c3ccccc3)c2ccn1Cc1cn2cc(CNc3cc(NCCCCl)ccn3)ccc2n1` [Compound 96, 2-((6-(((4-((3-chloropropyl)amino)pyridin-2-yl)amino)methyl)imidazo [1,2-a]pyridin-2-yl)methyl)-5-phenyl-2,7-naphthyridin-1(2H)-one], the pIC50 under setting [1] was 5.00 to 6.00.

In the case of `COCCNc1ccnc(NCc2ccc3nc(Cn4ccc5c(-c6ccccc6)cncc5c4=O)cn3c2)c1` [Compound 99, 2-((6-(((4-((2-methoxyethyl)amino)pyridin-2-yl)amino)methyl)imidazo[1,2-a]pyridin-2-yl)methyl)-5-phenyl-2,7-naphthyridin-1(2H)-one], the pIC50 (Homo sapiens, MOLM-13, 72 h) is under 5.00.

Turning to `O=c1c2cncc(-c3ccccc3)c2ccn1Cc1cn2cc(CNc3ccccn3)ccc2n1` [Compound 100, 5-phenyl-2-((6-((pyridin-2-ylamino)methyl)imidazo[1,2-a]pyridin-2-yl)methyl)-2,7-naphthyridin-1(2H)-one], under setting [1], the pIC50 is 5.00 to 6.00.

For the compound `COc1ccnc(NCc2ccc3nc(Cn4ccc5c(-c6ccccc6)cncc5c4=O)cn3c2)c1` [Compound 101, 2-((6-(((4-methoxypyndin-2-yl)amino)methyl)imidazo[1,2-a]pyridin-2-yl)methyl)-5-phenyl-2,7-naphthyridin-1(2H)-one], under setting [1], the negative logarithm of the IC50 (pIC50) is 5.00 to 6.00.

Consider `O=c1c2cncc(-c3ccccc3)c2ccn1Cc1cn2cc(CNc3cc(N4CCOCC4)ccn3)ccc2n1` [Compound 102, 2-{[6-({[4-(morpholin-4-yl)pyridin-2-yl]amino}methyl)imidazo[1,2-a]pyridin-2-yl]methyl}-5-phenyl-1,2-dihydro-2,7-naphthyridin-1-one], for which the pIC50 under setting [1] is 5.00 to 6.00.

On to `O=c1c2cncc(-c3ccccc3)c2ccn1Cc1cn2cc(-c3cc(N4CCC4)ccn3)ccc2n1` [Compound 105, 2-((6-(4-(azetidin-1-yl)pyridin-2-yl)imidazo[1,2-a]pyridin-2-yl)methyl)-5-phenyl-2,7-naphthyridin-1(2H)-one], for which the pIC50 (Homo sapiens, MOLM-13, 72 h) is 5.00 to 6.00.

Turning to `O=c1c2cncc(N3CC4(CCC4)C3)c2ccn1Cc1cn2cc(CNCC3CC(F)C3)ccc2n1` (stereo not shown) [Compound 110, 2-((6-((((3-fluorocyclobutyl)methyl)amino)methyl)imidazo [1,2-a]pyridin-2-yl)methyl)-5-(2-azaspiro[3.3]heptan-2-yl)-2,7-naphthyridin-1(2H)-one], under setting [1], the pIC50 is 5.00 to 6.00.

For `CC1(C)CCN(Cc2ccc3nc(Cn4ccc5c(N6CC7(C6)CC(F)(F)C7)cncc5c4=O)cn3c2)CC1` [Compound 111, 5-{6,6-difluoro-2-azaspiro[3.3]heptan-2-yl}-2-({6-[(4,4-dimethylpiperidin-1-yl)methyl]imidazo[1,2-a]pyridin-2-yl}methyl)-1,2-dihydro-2,7-naphthyridin-1-one], the pIC50 under setting [1] is under 5.00.

On to `CC1(C)CCN(Cc2ccc3nc(Cn4ccc5c(N6CCC(F)(F)CC6)cncc5c4=O)cn3c2)CC1` [Compound 112, 5-(4,4-difluoropiperidin-1-yl)-2-({6-[(4,4-dimethylpiperidin-1-yl)methyl]imidazo[1,2-a]pyridin-2-yl}methyl)-1,2-dihydro-2,7-naphthyridin-1-one], for which the pIC50 under setting [1] is 5.00 to 6.00.

Turning to `CC1(C)CCN(Cc2ccc3nc(Cn4ccc5c(N6CCOCC6)cncc5c4=O)cn3c2)CC1` [Compound 113, 2-({6-[(4,4-dimethylpiperidin-1-yl)methyl]imidazo[1,2-a]pyridin-2-yl}methyl)-5-(morpholin-4-yl)-1,2-dihydro-2,7-naphthyridin-1-one], the pIC50 under setting [1] is 5.00 to 6.00.

On to `CC1(C)CCN(Cc2ccc3nc(Cn4ccc5c(N6CC7(CCOCC7)C6)cncc5c4=O)cn3c2)CC1` [Compound 114, 2-({6-[(4,4-dimethylpiperidin-1-yl)methyl]imidazo[1,2-a]pyridin-2-yl}methyl)-5-{7-oxa-2-azaspiro[3.5]nonan-2-yl}-1,2-dihydro-2,7-naphthyridin-1-one], for which the pIC50 under setting [1] was 5.00 to 6.00.

Consider `CC1(C)CCN(Cc2ccc3nc(Cn4ccc5c(N6CC7COCC7C6)cncc5c4=O)cn3c2)CC1` (stereo not shown) [Compound 117, 2-({6-[(4,4-dimethylpiperidin-1-yl)methyl]imidazo[1,2-a]pyridin-2-yl}methyl)-5-{hexahydro-1H-furo[3,4-c]pyrrol-5-yl}-1,2-dihydro-2,7-naphthyridin-1-one], for which the pIC50 under setting [1] is under 5.00.

As for `CC1(C)CCN(Cc2ccc3nc(Cn4ccc5c(N6CC(N7CCOCC7)C6)cncc5c4=O)cn3c2)CC1` [Compound 118, 2-({6-[(4,4-dimethylpiperidin-1-yl)methyl]imidazo[1,2-a]pyridin-2-yl}methyl)-5-[3-(morpholin-4-yl)azetidin-1-yl]-1,2-dihydro-2,7-naphthyridin-1-one], the pIC50 under setting [1] was 5.00 to 6.00.

Take `CC1(C)CCN(Cc2ccc3nc(Cn4ccc5c(N6CC7(CCNCC7)C6)cncc5c4=O)cn3c2)CC1` [Compound 119, 5-{2,7-diazaspiro[3.5]nonan-2-yl}-2-({6-[(4,4-dimethylpiperidin-1-yl)methyl]imidazo[1,2-a]pyridin-2-yl}methyl)-1,2-dihydro-2,7-naphthyridin-1-one]: the pIC50 under setting [1] is 5.00 to 6.00.

With `CC1(C)CCN(Cc2ccc3nc(Cn4ccc5c(-c6ccc(S(N)(=O)=O)cc6)cncc5c4=O)cn3c2)CC1` [Compound 123, 4-[7-({6-[(4,4-dimethylpiperidin-1-yl)methyl]imidazo[1,2-a]pyridin-2-yl}methyl)-8-oxo-7,8-dihydro-2,7-naphthyridin-4-yl]benzene-1-sulfonamide], the pIC50 under setting [1] is under 5.00.

With `CC1(C)CCN(Cc2ccc3nc(Cn4ccc5c(C#Cc6ccncc6)cncc5c4=O)cn3c2)CC1` [Compound 124, 2-((6-((4,4-dimethylpiperidin-1-yl)methyl)imidazo[1,2-a]pyridin-2-yl)methyl)-5-(pyridin-4-ylethynyl)-2,7-naphthyridin-1(2H)-one], the pIC50 under setting [1] was under 5.00.

For the compound `CN(C)CC1CN(c2cncc3c(=O)n(Cc4cn5cc(CN6CCC(C)(C)CC6)ccc5n4)ccc23)C1` [Compound 125, 5-{3-[(dimethylamino)methyl]azetidin-1-yl}-2-({6-[(4,4-dimethylpiperidin-1-yl)methyl]imidazo[1,2-a]pyridin-2-yl}methyl)-1,2-dihydro-2,7-naphthyridin-1-one], the pIC50 under setting [1] was under 5.00.

Consider `CN1CCN(C2CN(c3cncc4c(=O)n(Cc5cn6cc(CN7CCC(C)(C)CC7)ccc6n5)ccc34)C2)CC1` [Compound 126, 2-({6-[(4,4-dimethylpiperidin-1-yl)methyl]imidazo[1,2-a]pyridin-2-yl}methyl)-5-[3-(4-methylpiperazin-1-yl)azetidin-1-yl]-1,2-dihydro-2,7-naphthyridin-1-one], for which, under setting [1], the pIC50 was under 5.00.

Consider `O=c1c2cncc(N3CC4(CCOCC4)C3)c2ccn1Cc1cn2cc(CN3CCC4(CC3)CC4)ccc2n1` [Compound 127, 2-{[6-({6-azaspiro[2.5]octan-6-yl}methyl)imidazo[1,2-a]pyridin-2-yl]methyl}-5-{7-oxa-2-azaspiro[3.5]nonan-2-yl}-1,2-dihydro-2,7-naphthyridin-1-one], for which the pIC50 under setting [1] is 5.00 to 6.00.

`O=c1c2cncc(N3CC4(CCOCC4)C3)c2ccn1Cc1cn2cc(CN3CC4(CCC4)C3)ccc2n1` [Compound 128, 2-{[6-({2-azaspiro[3.3]heptan-2-yl}methyl)imidazo[1,2-a]pyridin-2-yl]methyl}-5-{7-oxa-2-azaspiro[3.5]nonan-2-yl}-1,2-dihydro-2,7-naphthyridin-1-one]: the pIC50 under setting [1] was 5.00 to 6.00.

For the compound `O=c1c2cncc(N3CC4(CCOCC4)C3)c2ccn1Cc1cn2cc(CN3CCC4(CCC4)CC3)ccc2n1` [Compound 129, 2-((6-((7-azaspiro[3.5]nonan-7-yl)methyl)imidazo[1,2-a]pyridin-2-yl)methyl)-5-(7-oxa-2-azaspiro[3.5]nonan-2-yl)-2,7-naphthyridin-1(2H)-one], under setting [1], the pIC50 is 5.00 to 6.00.

Regarding `O=c1c2cncc(N3CC4(CCOCC4)C3)c2ccn1Cc1cn2cc(CN3CCC4(CCOC4)C3)ccc2n1` (stereo not shown) [Compound 130, 5-{7-oxa-2-azaspiro[3.5]nonan-2-yl}-2-{[6-({2-oxa-7-azaspiro[4.4]nonan-7-yl}methyl)imidazo[1,2-a]pyridin-2-yl]methyl}-1,2-dihydro-2,7-naphthyridin-1-one], the negative logarithm of the IC50 (pIC50) under setting [1] is 5.00 to 6.00.

In the case of `O=c1c2cncc(N3CC4(CCOCC4)C3)c2ccn1Cc1cn2cc(CN3CCC(C(F)(F)F)CC3)ccc2n1` [Compound 132, 5-{7-oxa-2-azaspiro[3.5]nonan-2-yl}-2-[(6-{[4-(trifluoromethyl)piperidin-1-yl]methyl}imidazo[1,2-a]pyridin-2-yl)methyl]-1,2-dihydro-2,7-naphthyridin-1-one], under setting [1], the pIC50 was 5.00 to 6.00.

Regarding `CC1(C#N)CCN(Cc2ccc3nc(Cn4ccc5c(N6CC7(CCOCC7)C6)cncc5c4=O)cn3c2)CC1` [Compound 134, 4-methyl-1-({2-[(5-{7-oxa-2-azaspiro[3.5]nonan-2-yl}-1-oxo-1,2-dihydro-2,7-naphthyridin-2-yl)methyl]imidazo[1,2-a]pyridin-6-yl}methyl)piperidine-4-carbonitrile], the pIC50 under setting [1] is under 5.00.

Consider `O=c1c2cncc(N3CC4(CCOCC4)C3)c2ccn1Cc1cn2cc(CN3CC4(C3)CC(F)(F)C4)ccc2n1` [Compound 135, 2-{[6-({6,6-difluoro-2-azaspiro[3.3]heptan-2-yl}methyl)imidazo[1,2-a]pyridin-2-yl]methyl}-5-{7-oxa-2-azaspiro[3.5]nonan-2-yl}-1,2-dihydro-2,7-naphthyridin-1-one], for which the pIC50 under setting [1] was 5.00 to 6.00.

Take `O=c1c2cncc(N3CC4(CCOCC4)C3)c2ccn1Cc1cn2cc(CN3CC4(CC(F)C4)C3)ccc2n1` [Compound 136, 2-{[6-({6-fluoro-2-azaspiro[3.3]heptan-2-yl}methyl)imidazo[1,2-a]pyridin-2-yl]methyl}-5-{7-oxa-2-azaspiro[3.5]nonan-2-yl}-1,2-dihydro-2,7-naphthyridin-1-one]: the pIC50 under setting [1] is 5.00 to 6.00.

Consider `O=c1c2cncc(N3CC4(CCOCC4)C3)c2ccn1Cc1cn2cc(CN3CCC4(CCCC4)C3)ccc2n1` [Compound 137], for which the pIC50 under setting [1] was 5.00 to 6.00.
